The numbers were not newly measured in patent publication EP0851285A1, “Photothermographic recording material coatable from an aqueous medium” (priority 1996, dated 1998), which cites them from elsewhere.

The conditions of this data set: salts B.

On to `O=P(=O)[O-].[Ag+]` [silver metaphosphate], for which the “Solubility in water at 20°C” value (20°C) is given as 0.32 g/100mL water.
On to `[Ag+].[Ag+].[O]=[W](=[O])([O-])[O-]` [silver tungstate], for which, for the setting “at 15°C (cell overrides title's 20°C)”, the Solubility in water was 0.05 (at 15°C) g/100mL water.
